Each block holds one molecule with its values, some of them ahead of it. The source made the active and inactive calls. The rule behind the calls is not given here.
Columns and labels:
Annexin A2 (Bos taurus) [1] = target: Annexin A2 (Bos taurus) (UniProt P04272); experiment: Displacement of biotinyl-withaferin from bovine lung annexin-2 at 40 uM by chemiluminescence assay
[2] = target: Annexin A2 (Homo sapiens) (UniProt P07355); experiment: Induction of annexin-2-mediated cytotoxicity in human MCF10A cells assessed as cell morphology at 4 uM after 2 hrs by scanning electron microscopy; conditions: MCF-10A
Target sequence in this assay (P07355 whole entry, looked up): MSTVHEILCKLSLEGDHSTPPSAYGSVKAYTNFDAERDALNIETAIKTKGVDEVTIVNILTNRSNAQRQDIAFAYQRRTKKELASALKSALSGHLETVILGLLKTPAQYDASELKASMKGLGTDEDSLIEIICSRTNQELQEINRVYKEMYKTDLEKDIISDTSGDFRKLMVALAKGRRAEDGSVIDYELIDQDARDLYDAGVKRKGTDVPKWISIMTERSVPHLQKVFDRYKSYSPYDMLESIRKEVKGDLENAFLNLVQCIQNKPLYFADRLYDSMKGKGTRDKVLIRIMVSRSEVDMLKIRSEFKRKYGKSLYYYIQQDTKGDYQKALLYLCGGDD

[3] = target: Annexin A2 (Homo sapiens) (UniProt P07355); experiment: Induction of annexin-2-mediated cytotoxicity in human CHP100 cells at 4 uM after 2 hrs by MTT assay; format: cell-based
Target sequence in this assay (P07355 whole entry): as the sequence (P07355 whole entry, looked up) above

[4] = target: Annexin A2 (Homo sapiens) (UniProt P07355); experiment: Binding affinity to annexin 2 assessed as inhibition of protein-lipid interaction after 15 mins by coomassine blue staining
Target sequence in this assay (P07355 whole entry): as the sequence (P07355 whole entry, looked up) above

[5] = target: Annexin A2 (Homo sapiens) (UniProt P07355); experiment: Inhibition of annexin 2-mediated liposome aggregation after 15 mins by spectrophotometry
Target sequence in this assay (P07355 whole entry): as the sequence (P07355 whole entry, looked up) above

Homo sapiens [6] = species: Homo sapiens; experiment: Effect on human F-actin bundling assessed as light scattering after 1 hr by SDS-PAGE
CHP100 = experiment: Cytotoxicity against human CHP100 cells assessed as viable cell after 24 hrs by MTT assay; format: functional, cell-based
HepG2 [7] = experiment: Cytotoxicity against human HepG2 cells harboring annexin 2 assessed as rapid shape change and rounding up at 4 uM after 2 hrs; format: functional, cell-based
Annexin A6 (Bos taurus) = target: T1, Annexin A6 (Bos taurus) (UniProt P79134); experiment: Displacement of biotinyl-withaferin from bovine lung annexin 6 at 10 uM by chemiluminescence assay
T1 sequence (whole entry): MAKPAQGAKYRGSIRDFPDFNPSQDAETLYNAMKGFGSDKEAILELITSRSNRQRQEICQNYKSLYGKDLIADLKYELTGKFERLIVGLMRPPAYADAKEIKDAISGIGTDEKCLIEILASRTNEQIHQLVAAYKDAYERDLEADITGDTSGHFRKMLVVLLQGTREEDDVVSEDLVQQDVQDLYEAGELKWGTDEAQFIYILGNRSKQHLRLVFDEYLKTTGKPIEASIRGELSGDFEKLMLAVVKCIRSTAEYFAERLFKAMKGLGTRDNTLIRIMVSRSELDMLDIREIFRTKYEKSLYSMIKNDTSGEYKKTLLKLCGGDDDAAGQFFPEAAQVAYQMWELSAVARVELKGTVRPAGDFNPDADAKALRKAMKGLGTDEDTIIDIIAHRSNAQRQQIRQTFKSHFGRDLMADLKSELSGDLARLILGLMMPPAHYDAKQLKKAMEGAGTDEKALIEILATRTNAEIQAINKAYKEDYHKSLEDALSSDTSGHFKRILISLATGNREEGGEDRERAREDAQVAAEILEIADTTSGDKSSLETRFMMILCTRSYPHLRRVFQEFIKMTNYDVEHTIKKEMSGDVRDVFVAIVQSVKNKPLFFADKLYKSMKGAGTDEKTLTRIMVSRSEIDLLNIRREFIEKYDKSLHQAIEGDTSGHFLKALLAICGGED

WI-38 [8] = experiment: Cytotoxicity against human WI38 cells assessed as cell viability pretreated after 16 hrs by MTT assay in presence of 1 uM cytochalasin B; format: functional, cell-based
Annexin A5 (Bos taurus) = target: T2, Annexin A5 (Bos taurus) (UniProt P81287); experiment: Displacement of biotinyl-withaferin from bovine lung annexin 5 at 10 uM by chemiluminescence assay
T2 sequence (whole entry): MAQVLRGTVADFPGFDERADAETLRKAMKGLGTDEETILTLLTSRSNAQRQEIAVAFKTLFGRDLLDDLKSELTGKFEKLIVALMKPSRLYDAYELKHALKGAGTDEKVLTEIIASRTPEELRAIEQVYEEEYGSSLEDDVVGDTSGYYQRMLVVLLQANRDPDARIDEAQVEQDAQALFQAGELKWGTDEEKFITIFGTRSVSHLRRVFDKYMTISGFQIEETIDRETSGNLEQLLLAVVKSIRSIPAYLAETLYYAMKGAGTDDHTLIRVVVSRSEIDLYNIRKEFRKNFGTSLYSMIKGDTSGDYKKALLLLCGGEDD

[9] = target: Annexin A2 (Homo sapiens) (UniProt P07355); experiment: Induction of annexin 2-mediated F-actin disruption in human WI38 cells at 4 uM after 2 hrs by confocal laser scanning microscopy; format: cell-based; conditions: WI-38
Target sequence in this assay (P07355 whole entry): as the sequence (P07355 whole entry, looked up) above

Homo sapiens [10] = species: Homo sapiens; experiment: Effect on human F-actin pellet formation after 1 hr by SDS-PAGE
Annexin A1 (Bos taurus) = target: T3, Annexin A1 (Bos taurus) (UniProt P46193); experiment: Displacement of biotinyl-withaferin from bovine lung annexin 1 at 10 uM by chemiluminescence assay
T3 sequence (whole entry): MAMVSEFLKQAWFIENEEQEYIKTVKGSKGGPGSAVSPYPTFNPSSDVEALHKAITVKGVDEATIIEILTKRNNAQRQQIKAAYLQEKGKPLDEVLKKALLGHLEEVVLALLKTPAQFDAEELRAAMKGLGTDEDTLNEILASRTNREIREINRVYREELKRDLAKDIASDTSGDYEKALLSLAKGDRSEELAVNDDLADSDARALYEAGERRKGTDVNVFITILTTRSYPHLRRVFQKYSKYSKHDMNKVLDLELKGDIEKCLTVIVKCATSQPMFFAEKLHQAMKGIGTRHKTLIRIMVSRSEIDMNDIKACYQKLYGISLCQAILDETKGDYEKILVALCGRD

WI-38 [11] = experiment: Cytotoxicity against human WI38 cells assessed as cell viability pretreated after 16 hrs by MTT assay in presence of 0.5 uM cytochalasin B; format: functional, cell-based
Annexin A4 (Bos taurus) = target: T4, Annexin A4 (Bos taurus) (UniProt P13214); experiment: Displacement of biotinyl-withaferin from bovine lung annexin 4 at 10 uM by chemiluminescence assay
T4 sequence (whole entry): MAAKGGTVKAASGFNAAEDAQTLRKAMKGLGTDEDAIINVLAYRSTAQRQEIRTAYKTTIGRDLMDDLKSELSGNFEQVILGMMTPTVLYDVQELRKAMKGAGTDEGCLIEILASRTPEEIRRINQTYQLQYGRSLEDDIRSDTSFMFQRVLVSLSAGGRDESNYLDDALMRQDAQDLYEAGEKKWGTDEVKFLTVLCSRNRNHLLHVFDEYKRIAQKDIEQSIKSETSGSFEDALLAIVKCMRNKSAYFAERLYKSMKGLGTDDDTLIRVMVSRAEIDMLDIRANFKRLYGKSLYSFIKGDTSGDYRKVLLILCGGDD

[12] = target: Annexin A2 (Homo sapiens) (UniProt P07355); experiment: Induction of annexin 2-mediated cytoskeleton aggregate accumulation in human HepG2 cells at 4 uM after 2 hrs by confocal laser scanning microscopy; format: cell-based
Target sequence in this assay (P07355 whole entry): as the sequence (P07355 whole entry, looked up) above

[13] = target: Annexin A2 (Homo sapiens) (UniProt P07355); experiment: Displacement of biotinyl-withaferin from annexin-2 in human CHP100 at 0.4 to 4 uM by chemiluminescence assay
Target sequence in this assay (P07355 whole entry): as the sequence (P07355 whole entry, looked up) above

Annexin A2 (Bos taurus) [14] = target: Annexin A2 (Bos taurus) (UniProt P04272); experiment: Displacement of biotinyl-withaferin from bovine lung annexin-2 at 0.4 uM by chemiluminescence assay
Annexin A2 (Bos taurus) [15] = target: Annexin A2 (Bos taurus) (UniProt P04272); experiment: Displacement of biotinyl-withaferin from bovine lung annexin 2 at 10 uM by chemiluminescence assay
PC-3M = experiment: Cytotoxicity against human PC3M cells assessed as viable cell after 24 hrs by MTT assay; format: functional, cell-based
[16] = target: Annexin A2 (Homo sapiens) (UniProt P07355); experiment: Displacement of biotinyl-withaferin from annexin-2 in human MCF10A at 0.4 to 4 uM by chemiluminescence assay
Annexin A2 (Bos taurus) [17] = target: Annexin A2 (Bos taurus) (UniProt P04272); experiment: Displacement of biotinyl-withaferin from bovine lung annexin-2 at 4 uM by chemiluminescence assay
[18] = target: Annexin A2 (Homo sapiens) (UniProt P07355); experiment: Effect on human annexin 2-mediated F-actin bundling assessed as increase in light scattering after 1 hr by SDS-PAGE
HepG2 [19] = experiment: Cytotoxicity against human HepG2 cells harboring annexin 2 after 48 hrs by MTT assay; format: functional, cell-based
[20] = target: Annexin A2 (Homo sapiens) (UniProt P07355); experiment: Induction of annexin 2-mediated F-actin disruption in human HepG2 cells at 4 uM after 2 hrs by confocal laser scanning microscopy; format: cell-based

Chain of Annexin A2 (Bos taurus) (P04272 whole entry): as the sequence (P07355 whole entry, looked up) above, with A66E, I160V, P223C, D230E, R245K, R309K counted along it

Compound: CC1=C(C)C(=O)O[C@H]([C@](C)(O)[C@H]2CC[C@H]3[C@@H]4C[C@H]5O[C@]56[C@@H](O)C=CC(=O)[C@]6(C)[C@H]4CC[C@]23C)C1
Activity (Annexin A2 (Bos taurus) [1]): inactive | Activity [2]: inactive | Activity [3]: inactive

Activity [4]: Active | inhibition [5]: Active
Compound: CCN1C(=O)C=CC1=O

Activity (Homo sapiens [6]): inactive | Activity (Annexin A6 (Bos taurus)): inactive | Activity (Annexin A5 (Bos taurus)): inactive | Activity [9]: Active | Activity (Homo sapiens [10]): inactive | Activity (Annexin A1 (Bos taurus)): inactive | Activity (Annexin A4 (Bos taurus)): inactive | Activity [12]: Active | Activity [13]: Active | Activity (Annexin A2 (Bos taurus) [1]): Active | Activity [4]: inactive | Activity (Annexin A2 (Bos taurus) [14]): Active | Activity (Annexin A2 (Bos taurus) [15]): Active | Activity [16]: Active | Activity (Annexin A2 (Bos taurus) [17]): Active | inhibition [5]: inactive | Activity [18]: Active | Activity [20]: Active
Compound: CC1=C(CO)C(=O)O[C@@H]([C@@H](C)[C@H]2CC[C@H]3[C@@H]4C[C@H]5O[C@]56[C@@H](O)C=CC(=O)[C@]6(C)[C@H]4CC[C@]23C)C1
Activity (CHP100): Active | Activity (HepG2 [7]): Active | Activity (WI-38 [8]): inactive | Activity (WI-38 [11]): inactive | Activity [2]: inactive | Activity (PC-3M): Active | Activity (HepG2 [19]): Toxic

— ChEMBL document CHEMBL1221176, “Actin microfilament aggregation induced by withaferin A is mediated by annexin II” (Nat Chem Biol, 2006)
